System: 496974-208-R-J2-PDC complex spheroids, growth % test/control
Test: Anticancer human tumor 496974-208-R-J2-PDC patient-derived pancreatic carcinoma cell line growth inhibition [CLK]
Conditions: for IC50: curve of first compound; for viability, T/C: stronger effect = lower value; active means viability on the fitted dose curve at most 10% of control; inactive means the rest
Method in brief: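 Multi-cell-type spheroids combined patient-derived tumor cells with HUVEC endothelial cells and human mesenchymal stem cells. Paired agents were dosed in half-log steps down from about clinical Cmax, or from 10 microM where Cmax was unknown.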

[1] = second compound 0.0316 µM, first compound 0.0316 µM
[2] = second compound 0.0316 µM, first compound 0.1 µM
[3] = second compound 0.0316 µM, first compound 0.316 µM
[4] = second compound 0.0316 µM, first compound 1 µM
[5] = second compound 0.1 µM, first compound 0.0316 µM
[6] = second compound 0.1 µM, first compound 0.1 µM
[7] = second compound 0.1 µM, first compound 0.316 µM
[8] = second compound 0.1 µM, first compound 1 µM
[9] = second compound 0.316 µM, first compound 0.0316 µM
[10] = second compound 0.316 µM, first compound 0.1 µM
[11] = second compound 0.316 µM, first compound 0.316 µM
[12] = second compound 0.316 µM, first compound 1 µM
[13] = second compound 1 µM, first compound 0.0316 µM
[14] = second compound 1 µM, first compound 0.1 µM
[15] = second compound 1 µM, first compound 0.316 µM
[16] = second compound 1 µM, first compound 1 µM
[17] = second compound 3.16 µM, first compound 0.0316 µM
[18] = second compound 3.16 µM, first compound 0.1 µM
[19] = second compound 3.16 µM, first compound 0.316 µM
[20] = second compound 3.16 µM, first compound 1 µM
[21] = second compound 10 µM, first compound 0.0316 µM
[22] = second compound 10 µM, first compound 0.1 µM
[23] = second compound 10 µM, first compound 0.316 µM
[24] = second compound 10 µM, first compound 1 µM
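Further: spheroids exposed to the drugs for 7 days before readout.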
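Wherever viability, T/C is given: 100% = DMSO vehicle control wells.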

CC1COCCN1c1cc(C2(S(C)(=N)=O)CC2)nc(-c2ccnc3[nH]ccc23)n1 (centres undefined) + CNC(=O)c1ccc(Nc2nc(OC3CCCC3)c3c(-c4ccc5nc(C)oc5c4)c[nH]c3n2)c(OC)c1
2150 nM: IC50 (second compound 1 µM)
971 nM: IC50 (second compound 10 µM)
inactive: viability, T/C [1] 101% | viability, T/C [2] 98.3% | viability, T/C [3] 91.2% | viability, T/C [4] 83.2% | viability, T/C (second compound 0.0316 µM, first compound 3.16 µM) 62.8% | viability, T/C (second compound 0.0316 µM, first compound 10 µM) 42.1% | viability, T/C [5] 87.2% | viability, T/C [6] 78.4% | viability, T/C [7] 77.1% | viability, T/C [8] 74.4% | viability, T/C (second compound 0.1 µM, first compound 3.16 µM) 53.5% | viability, T/C (second compound 0.1 µM, first compound 10 µM) 43% | viability, T/C [9] 72.6% | viability, T/C [10] 69.3% | viability, T/C [11] 79% | viability, T/C [12] 80% | viability, T/C (second compound 0.316 µM, first compound 3.16 µM) 56.4% | viability, T/C (second compound 0.316 µM, first compound 10 µM) 38.7% | viability, T/C [13] 73.8% | viability, T/C [14] 66.8% | viability, T/C [15] 71% | viability, T/C [16] 62.8% | viability, T/C (second compound 1 µM, first compound 3.16 µM) 43.5% | viability, T/C (second compound 1 µM, first compound 10 µM) 32.6% | viability, T/C [17] 63.7% | viability, T/C [18] 63.2% | viability, T/C [19] 54.6% | viability, T/C [20] 52.5% | viability, T/C (second compound 3.16 µM, first compound 3.16 µM) 36.9% | viability, T/C (second compound 3.16 µM, first compound 10 µM) 27.6% | viability, T/C [21] 51.8% | viability, T/C [22] 58% | viability, T/C [23] 54.5% | viability, T/C [24] 49.8% | viability, T/C (second compound 10 µM, first compound 3.16 µM) 31.9% | viability, T/C (second compound 10 µM, first compound 10 µM) 21.8%
953 nM: IC50 (second compound 3.16 µM)
6500 nM: IC50 (second compound 0.0316 µM)
4780 nM: IC50 (second compound 0.316 µM)
5520 nM: IC50 (second compound 0.1 µM)

CCc1c2c(nc3ccc(O)cc13)-c1cc3c(c(=O)n1C2)COC(=O)[C@]3(O)CC + CNC(=O)c1ccc(Nc2nc(OC3CCCC3)c3c(-c4ccc5nc(C)oc5c4)c[nH]c3n2)c(OC)c1
12.6 nM: IC50 (second compound 0.316 µM)
active: viability, T/C [3] 12.1% | viability, T/C [4] 3.81% | viability, T/C [7] 9.65% | viability, T/C [8] 2.79% | viability, T/C [11] 7.42% | viability, T/C [12] 3.21% | viability, T/C [15] 5.29% | viability, T/C [16] 2.81% | viability, T/C [19] 4.63% | viability, T/C [20] 2.2% | viability, T/C [23] 3.68% | viability, T/C [24] 6.41%
< 3.16 nM: IC50 (second compound 10 µM)
15.2 nM: IC50 (second compound 0.0316 µM)
12.7 nM: IC50 (second compound 0.1 µM)
11.2 nM: IC50 (second compound 1 µM)
4.84 nM: IC50 (second compound 3.16 µM)
inactive: viability, T/C (second compound 0.0316 µM, first compound 0.00316 µM) 70.7% | viability, T/C (second compound 0.0316 µM, first compound 0.01 µM) 56.9% | viability, T/C [1] 38.6% | viability, T/C [2] 19% | viability, T/C (second compound 0.1 µM, first compound 0.00316 µM) 67.8% | viability, T/C (second compound 0.1 µM, first compound 0.01 µM) 54% | viability, T/C [5] 36% | viability, T/C [6] 21.2% | viability, T/C (second compound 0.316 µM, first compound 0.00316 µM) 69.8% | viability, T/C (second compound 0.316 µM, first compound 0.01 µM) 53.5% | viability, T/C [9] 35% | viability, T/C [10] 19.2% | viability, T/C (second compound 1 µM, first compound 0.00316 µM) 60.5% | viability, T/C (second compound 1 µM, first compound 0.01 µM) 52.6% | viability, T/C [13] 31.2% | viability, T/C [14] 13.5% | viability, T/C (second compound 3.16 µM, first compound 0.00316 µM) 54.4% | viability, T/C (second compound 3.16 µM, first compound 0.01 µM) 42.6% | viability, T/C [17] 25.6% | viability, T/C [18] 12.9% | viability, T/C (second compound 10 µM, first compound 0.00316 µM) 50% | viability, T/C (second compound 10 µM, first compound 0.01 µM) 38.9% | viability, T/C [21] 24.4% | viability, T/C [22] 11.9%

Reference: PubChem BioAssay AID2060615 (Molecular Pharmacology Branch, DTP, NCI, 2025)
